Measured values reported in patent US12371676B2, “Circularly permutated haloalkane transferase fusion molecules” (MAX-PLANCK-GESELLSCHAFT ZUR FÖRDERUNG DER WISSENSCHAFTEN E. …, priority 2019, dated 2025).
No end group written: not given here.

Experiments:
HaloTag7D106A [1] = target: T1, HaloTag7D106A (Rhodococcus rhodochrous, UniProt P0A3G2, A155T/A167V/A172T/A224E/C128F/C176G/D106A/D78G/E160K/E257K/H272N/K175M/K195N/L47V/L88M/N227D/P291S/S2A/S58T/T264A/Y273L/Y87F); test: Fluorescence intensity based binding assay of fluorogenic HaloTag ligands; details: 25 nM fluorogenic dye
T1 construct: made in house
Protocol: FIG. 3 Affinities of fluorogenic HaloTag™ ligands to HaloTag7D106A: The catalytically dead variant HaloTag7D106A was titrated against 3 different fluorogenic HaloTag™ ligands at 25 nM in a fluorescence intensity based binding assay (Halo-Siliconrhodamine, Halo-Janelia Fluor 646 and Halo-Janelia Fluor 635). Structures of the fluorogenic ligands are shown in each graph. Data were fitted to a one-site binding model and derived Kd values are shown in the graph. Due to the low affinity of the fluorogenic substrates, data points at […] were extrapolated based on fully labelled Halo Tag™ 7 (resembling complete binding) to improve fitting. Data points at 1 nM correspond to values without any protein added, but were placed at low concentrations to appear on the logarithmic scale. All experiments were performed in triplicates, error bars and annotated uncertainties represent standard deviations.
(§1) The inventors decided to perform the experiment with some representative fluorescent HaloTag™ substrates. An exchange of the aspartate106 residue in the active site by an alanine, removes the nucleophile responsible for the self labeling reaction and eliminates the catalytic activity of the protein. Catalytically dead mutants of HaloTag™ 7 (HaloTag™ 7D106A) and cpHaloΔ9mer (cpHalo_9merD106A) were generated to measure substrate affinities without displacement of the equilibrium by the enzymatic reaction.
(§2) Affinities for the different fluorescent substrates towards HaloTag™ 7D106A were determined in an FP binding assay (FIG. 2), while affinities of fluorogenic silcon-rhodamine derived substrates were measured by a fluorescence intensity based binding assay (FIG. 3), since binding of the fluorogenic ligands by HaloTag™ 7 engenders a strong increase of fluorescence. In both cases Halo Tag7D106A concentrations ranging from 0 μM to 100 μM were titrated against 25 nM of dye. […] The observed affinities are in agreement with labelling kinetics recorded with different substrates (data not shown). […]

HaloTag7D106A [2] = target: T1, HaloTag7D106A; test: FP binding assay of fluorescent HaloTag ligands
Protocol: FIG. 2 Affinities of fluorescent Halo Tag™ ligands to HaloTag7D106A: The catalytically dead variant HaloTag7D106A was titrated against 5 different fluorescent HaloTag™ ligands at 25 nM in an FP binding assay (Halo-carbopyronine, Halo-TMR, Halo-TMR-azetidine, Halo-Oregon Green™, Halo Alexa Fluor™ 488). Structures of the fluorescent ligands are shown in each graph. Data points at 0.1 nM and 1 nM correspond to values without any protein added, but were placed at low concentrations to appear on the logarithmic scale. All experiments were performed in triplicates, error bars and annotated uncertainties represent standard deviations.
as §1
Affinities for the different fluorescent substrates towards HaloTag™ 7D106A were determined in an FP binding assay (FIG. 2), while affinities of fluorogenic silcon-rhodamine derived substrates were measured by a fluorescence intensity based binding assay (FIG. 3), since binding of the fluorogenic ligands by HaloTag™ 7 engenders a strong increase of fluorescence. In both cases Halo Tag7D106A concentrations ranging from 0 μM to 100 μM were titrated against 25 nM of dye. […] The observed affinities are in agreement with labelling kinetics recorded with different substrates (data not shown). In general, fluorogenic substrates have lower affinities to HaloTag7D106A than non-fluorogenic substrates, except for Halo-Alexa Fluor™ 488 that features an affinity in the same range. Additionally, within the Silicon rhodamine derivatives the presence of an azetidine or 3-fluoroazetidine moiety has an influence on the binding affinity which is more pronounced compared to the rhodamine structure. Affinities of fluorescent HaloTag™ ligands presenting the best affinities for HaloTag™ 7 were tested with cpHaloΔ9merD106A in an FP binding assay and results were compared to the measurements with HaloTag7D106A (FIG. 4, table 1).

cpHaloΔ9merD106A = cpHaloΔ9merD106A (Rhodococcus rhodochrous, UniProt P0A3G2, A167V/A172T/A224E/A292T/C128F/C176G/D106A/D78G/E160K/E257K, form not given/H272N/K175M/K195N/L47V/L88M/N227D/P291S/S58T/T264A/Y273L/Y87F); test: FP binding assay of fluorescent HaloTag ligands; details: 25 nM dye
Protocol: FIG. 4 Comparison of HaloTag™ 7D106A and cpHaloΔ9merD106A fluorescent substrate binding: The catalytically dead variant […] (blue) was titrated against 3 different fluorescent Halo Tag™ ligands at 25 nM in an FP binding assay (Halo-TMR, Halo-TMR-azetidine and Halo-carbopyronine). Structures of the respective fluorescent ligands are shown above each graph. Data were fitted to a one-site binding model and derived Kd values are shown in the graphs. Data points at 0.01 nM and 0.1 nM correspond to values without any protein added, but were placed at low concentrations to appear on the logarithmic scale. Data were compared to HaloTag™ 7D106A binding of the same fluorophores (red). Differences in binding affinity are indicated by the relative fold change of Kd values. All experiments were performed in triplicate, error bars represent standard deviations.
as §1, §2

cpHaloΔ9mer = target: T2, cpHaloΔ9mer (Rhodococcus rhodochrous, UniProt P0A3G2, C128F/D78G/L47V/L88M/S58T/Y87F); test: Background labelling of cpHaloΔ9mer by in gel fluorescence; type: biochemical; details: cpHaloΔ9mer 1 μM, 2 μM fluorescent ligand, 37° C.
T2 construct: made in house
Protocol: FIG. 5 Background labeling of cpHaloΔ9mer: Background labeling of cpHaloΔ9mer (1 μM) in presence of 2 μM fluorescent ligands (at 37° C.) was determined via in gel fluorescence measurements. Samples were denatured and analysed via SDS-PAGE followed by in gel fluorescence scanning (top; gel is represented in false colors to highlight dim bands). Intensities were normalized to Halo Tag™ 7 labeled with the respective fluorophore (bottom).
A well performing protein complementation assay requires a low background. The inventors thus measured the extent of background labelling of cpHaloΔ9mer with different fluorophores (Halo-TMR, Halo-CPY and Halo-SiR). Therefore, cpHaloΔ9mer was incubated with an excess of the different fluorescent ligands.
The labelling efficiency at 37° C. and at different time points was determined via in gel fluorescence measurements (FIG. 5). […] These findings are in accordance to fluorescent ligand affinities (FIG. 4). Indeed, Halo-CPY has the highest affinity to cpHaloΔ9mer and already presents some affinity for the ligand at 2 μM engendering a labelling which still remains marginal considering the experimental setup.

physchem = details: pH 7.3

T2 sequence (P0A3G2 other isoform, or with tags, fused parts or gaps L47V/S58T/D78G/Y87F/L88M/C128F): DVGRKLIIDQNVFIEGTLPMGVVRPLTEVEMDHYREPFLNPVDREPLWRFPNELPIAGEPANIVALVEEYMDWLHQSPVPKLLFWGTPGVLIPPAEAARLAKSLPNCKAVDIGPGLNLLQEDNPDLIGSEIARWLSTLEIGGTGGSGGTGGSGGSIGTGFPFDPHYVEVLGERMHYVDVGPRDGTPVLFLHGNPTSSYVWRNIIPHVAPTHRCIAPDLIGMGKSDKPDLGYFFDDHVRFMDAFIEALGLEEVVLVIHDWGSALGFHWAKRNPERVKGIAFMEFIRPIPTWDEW
Chain of cpHaloΔ9merD106A (P0A3G2 other isoform, or with tags, fused parts or gaps with the stated changes, form open): as the sequence (P0A3G2 other isoform, or with tags, fused parts or gaps L47V/S58T/D78G/Y87F/L88M/C128F) above, with D258A counted along it
T1 sequence (P0A3G2 other isoform, or with tags, fused parts or gaps with the stated changes): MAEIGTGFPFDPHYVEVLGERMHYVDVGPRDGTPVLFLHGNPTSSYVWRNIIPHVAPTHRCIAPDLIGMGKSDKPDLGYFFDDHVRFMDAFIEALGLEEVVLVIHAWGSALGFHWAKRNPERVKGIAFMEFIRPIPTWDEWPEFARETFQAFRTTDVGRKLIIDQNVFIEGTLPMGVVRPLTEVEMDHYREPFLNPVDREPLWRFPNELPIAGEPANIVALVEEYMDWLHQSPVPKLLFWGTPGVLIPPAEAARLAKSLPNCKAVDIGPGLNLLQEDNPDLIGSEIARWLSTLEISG

Compound	Kd (HaloTag7D106A [1])	Kd (HaloTag7D106A [2])	Kd (cpHaloΔ9merD106A)	background labelling of cpHaloΔ9mer (cpHaloΔ9mer)	other results
C[Si]1(C)C2=CC(=[N+]3CC(F)C3)C=CC2=C(c2cc(C(=O)NCCOCCOCCCCCCCl)ccc2C(=O)O)c2ccc(N3CC(F)C3)cc21 (stereo not drawn) [1-(10-(2-carboxy-5-((2-(2-((6-chlorohexyl)oxy)ethoxy)ethyl)carbamoyl)phenyl)-7-(3-fluoroazetidin-1-yl)-5,5-dimethyldibenzo[b,e]silin-3(5H)-ylidene)-3-fluoroazetidin-1-ium]	172 µM				
N=c1ccc2c(-c3cc(C(=O)NCCOCCOCCCCCCCl)ccc3C(=O)O)c3ccc(N)c(S(=O)(=O)O)c3oc-2c1S(=O)(=O)O [Halo-Alexa Fluor 488, 6-amino-9-(2-carboxy-5-((2-(2-((6-chlorohexyl)oxy)ethoxy)ethyl)carbamoyl)phenyl)-3-iminio-3H-xanthene-4,5-disulfonate]					Kd (HaloTag7D106A [2]; HaloTag7D106A, FP binding assay, 25 nM dye, one-site binding model, read-out: Kd): 94 µM
O=C(NCCOCCOCCCCCCCl)c1ccc(C(=O)O)c(-c2c3cc(F)c(=O)cc-3oc3cc(O)c(F)cc23)c1 [Halo-Oregon Green, 4-((2-(2-((6-chlorohexyl)oxy)ethoxy)ethyl)carbamoyl)-2-(2,7-difluoro-6-hydroxy-3-oxo-3H-xanthen-9-yl)benzoic acid]		39.6 µM			
CN(C)c1ccc2c(c1)C(C)(C)C1=CC(=[N+](C)C)C=CC1=C2c1cc(C(=O)NCCOCCOCCCCCCCl)ccc1C(=O)[O-] [Halo-carbopyronine, N-(10-(2-carboxy-5-((2-(2-((6-chlorohexyl)oxy)ethoxy)ethyl)carbamoyl)phenyl)-7-(dimethylamino)-9,9-dimethylanthracen-2(9H)-ylidene)-N-methylmethanaminium]		0.622 µM	90.5 µM	slightly stronger background labelling	
CN(C)c1ccc2c(c1)[Si](C)(C)C1=CC(=[N+](C)C)C=CC1=C2c1cc(C(=O)NCCOCCOCCCCCCCl)ccc1C(=O)O [Halo-silicon-rhodamine, N-(10-(2-carboxy-5-((2-(2-((6-chlorohexyl)oxy)ethoxy)ethyl)carbamoyl)phenyl)-7-(dimethylamino)-5,5-dimethyldibenzo[b,e]silin-3(5H)-ylidene)-N-methylmethanaminium]	22.7 µM			Very low background labelling	
C[Si]1(C)C2=CC(=[N+]3CCC3)C=CC2=C(c2cc(C(=O)NCCOCCOCCCCCCCl)ccc2C(=O)O)c2ccc(N3CCC3)cc21 [Halo-silicon-rhodamine-azetidine (JF646), 1-(7-(azetidin-1-yl)-10-(2-carboxy-5-((2-(2-((6-chlorohexyl)oxy)ethoxy)ethyl)-carbamoyl)phenyl)-5,5-dimethyldibenzo[b,e]silin-3(5H)-ylidene)azetidin-1-ium]	54.6 µM				
CN(C)c1ccc2c(-c3cc(C(=O)NCCOCCOCCCCCCCl)ccc3C(=O)[O-])c3ccc(=[N+](C)C)cc-3oc2c1 [Halo-tetramethylrhodamine, N-(9-(2-carboxy-5-((2-(2-((6-chlorohexyl)oxy)ethoxy)ethyl)carbamoyl)phenyl)-6-(dimethylamino)-3H-xanthen-3-ylidene)-N-methylmethanaminium]		6.68 µM	115 µM	Very low background labelling	
O=C(NCCOCCOCCCCCCCl)c1ccc(C(=O)[O-])c(-c2c3ccc(=[N+]4CCC4)cc-3oc3cc(N4CCC4)ccc23)c1 [Halo-tetramethylrhodamine-azetidine, 1-(6-(azetidin-1-yl)-9-(2-carboxy-5-((2-(2-((6-chlorohexyl)oxy)ethoxy)ethyl)carbamoyl)-phenyl)-3H-xanthen-3-ylidene)azetidin-1-ium]		4.4 µM	227 µM		
ARETFQAFR [9mer peptide]					solubility (physchem): ~30 mM
